Laboratory results reported in US6514486B1, “Composition for topical application comprising at least one iminophenol compound” (L'Oreal, priority 1997, dated 2003).

System: coculture of keratinocytes and of melanocytes
Assay: depigmenting activity test: inhibition of melanogenesis on a coculture of keratinocytes and of melanocytes
Assay type: cell-based
Conditions: for Category (maximum depigmenting activity): inhibition of melanogenesis with respect to the control; for IC50: coculture of keratinocytes and melanocytes, read-out: IC50 (concentration at which 50% inhibition of melanogenesis is observed)
Method: This test corresponds to that described in Patent FR 2,734,825, filed by the Applicant Company, and in the article by R. Schmidt, P. Krien and M. Régnier, Anal. Biochem., 235(2), 113-18 (1996). This test is thus carried out on a coculture of keratinocytes and of melanocytes.
The IC50 value, which corresponds to the micromolar concentration (μM) at which 50% inhibition of melanogenesis is observed, is determined for each compound tested.
Furthermore, a category is given to each of these compounds for their maximum depigmenting activity:
category 1: 10 to 30% inhibition of melanogenesis with respect to the control (same experiment without compound to be tested);
category 2: 30 to 60% inhibition of melanogenesis with respect to the control (same experiment without compound to be tested);
category 3: 60 to 100% inhibition of melanogenesis with respect to the control (same experiment without compound to be tested).

IC50 [µM] | SMILES | Category (maximum depigmenting activity) (at 500 μM) | Category (maximum depigmenting activity) (at 50 μM)
500 | O=c1cc(CO)occ1O [Kojic acid] | 2 at 500 μM (category 2: 30 to 60% inhibition of melanogenesis with respect to the control) | –
200 | CN(C)C=Nc1ccc(O)cc1 [N′-(4-hydroxyphenyl)-N,N-dimethylformamidine] | – | 2 at 50 μM (category 2: 30 to 60% inhibition of melanogenesis with respect to the control)
